Results on 13 molecules are retold here after patent publication US20170210778A1, “NOVEL COMPOUNDS” (The Provost, Fellows, Foundation Scholars, and the other …, priority 2014, published 2017).

Assay [1] concerns the target T1, human NOD1 (Homo sapiens, UniProt Q9Y239).
T1 construct: expressed in transfected cells; host or cells: HEK293
T1 sequence (Q9Y239 1-953): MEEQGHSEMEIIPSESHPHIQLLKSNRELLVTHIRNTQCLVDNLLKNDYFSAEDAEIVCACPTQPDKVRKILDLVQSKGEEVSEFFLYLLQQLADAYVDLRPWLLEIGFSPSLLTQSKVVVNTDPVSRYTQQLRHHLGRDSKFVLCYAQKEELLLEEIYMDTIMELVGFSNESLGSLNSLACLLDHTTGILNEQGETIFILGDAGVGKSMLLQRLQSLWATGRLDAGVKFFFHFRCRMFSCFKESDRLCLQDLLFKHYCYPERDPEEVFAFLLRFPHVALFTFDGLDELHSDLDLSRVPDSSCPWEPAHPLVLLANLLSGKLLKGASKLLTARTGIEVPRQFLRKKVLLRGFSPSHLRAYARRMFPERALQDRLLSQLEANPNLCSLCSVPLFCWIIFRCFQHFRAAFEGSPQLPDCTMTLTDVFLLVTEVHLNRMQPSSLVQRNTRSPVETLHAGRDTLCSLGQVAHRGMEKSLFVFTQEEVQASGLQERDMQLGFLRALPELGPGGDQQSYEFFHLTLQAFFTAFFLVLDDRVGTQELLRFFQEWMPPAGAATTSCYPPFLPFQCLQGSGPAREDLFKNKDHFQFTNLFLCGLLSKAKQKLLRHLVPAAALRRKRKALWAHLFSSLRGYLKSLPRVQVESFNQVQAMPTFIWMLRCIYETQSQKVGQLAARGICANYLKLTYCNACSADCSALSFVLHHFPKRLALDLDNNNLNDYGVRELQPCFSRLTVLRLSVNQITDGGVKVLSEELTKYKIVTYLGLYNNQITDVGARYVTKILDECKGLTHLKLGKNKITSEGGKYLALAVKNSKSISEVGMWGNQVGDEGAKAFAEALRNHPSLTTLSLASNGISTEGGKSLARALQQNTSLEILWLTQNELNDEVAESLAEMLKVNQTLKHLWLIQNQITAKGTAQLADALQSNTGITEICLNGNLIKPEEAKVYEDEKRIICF
Briefly: NOD1 functional agonist assay, 293hNOD1-SEAP reporter cells. The class given is cell-based. The following applies: 293hNOD1 cells, OD above 3*O.D of negative control. From the text:
(§1) HEK293 cells were stably transfected with plasmid for the overexpression of the NOD1 genes and a reporter plasmid expressing a secreted embryonic alkaline phosphatase (SEAP) gene under the control of a promoter inducible by the transcription factors NF-κB and AP-1. These cells are referred herein as 293hNOD1-SEAP (for cells overexpressing the human NOD1 gene) and 293mNOD1-SEAP (for cells overexpressing the murine NOD1 gene). Upon NOD1 stimulation, these cells induce the activation of NF-κB and AP-1 and subsequently the secretion of SEAP. The reporter protein is easily detectable and measurable when using QUANTI-Blue™ (InvivoGen, San Diego, Calif.), a medium that turns purple/blue in the presence of SEAP.
(§2) The biological activity of the compounds of the invention tested using 293hNOD1 and 293mNOD1 cells. SEAP expression was measured using the commercially available SEAP detection kit (HEK-Blue™ Detection, InvivoGen). The SEAP activity in cells was quantified using the microplate reader (FLUOStar OPTIMA, BMG laboratories), the absorbance values were read using filter with excitation at 620 nm and emission at 655 nm. The results provided in Table 2 were expressed as the concentration were a significant mean optical density (OD) can be observed (above 3*O.D of negative control). As a positive control, the NOD1 pathway was stimulated with commercially available iE-DAP (InvivoGen) and C12-iE-DAP (an acylated derivative of DAP; InvivoGen). As a negative control endotoxin-free water was used. Additionally, 293 cells expressing the SEAP gene but not the NOD1 gene were used as a control.

In assay [2] the target is T2, murine NOD1 (Mus musculus, UniProt Q8BHB0).
T2 construct: expressed in transfected cells; host or cells: HEK293
T2 sequence (Q8BHB0 1-953): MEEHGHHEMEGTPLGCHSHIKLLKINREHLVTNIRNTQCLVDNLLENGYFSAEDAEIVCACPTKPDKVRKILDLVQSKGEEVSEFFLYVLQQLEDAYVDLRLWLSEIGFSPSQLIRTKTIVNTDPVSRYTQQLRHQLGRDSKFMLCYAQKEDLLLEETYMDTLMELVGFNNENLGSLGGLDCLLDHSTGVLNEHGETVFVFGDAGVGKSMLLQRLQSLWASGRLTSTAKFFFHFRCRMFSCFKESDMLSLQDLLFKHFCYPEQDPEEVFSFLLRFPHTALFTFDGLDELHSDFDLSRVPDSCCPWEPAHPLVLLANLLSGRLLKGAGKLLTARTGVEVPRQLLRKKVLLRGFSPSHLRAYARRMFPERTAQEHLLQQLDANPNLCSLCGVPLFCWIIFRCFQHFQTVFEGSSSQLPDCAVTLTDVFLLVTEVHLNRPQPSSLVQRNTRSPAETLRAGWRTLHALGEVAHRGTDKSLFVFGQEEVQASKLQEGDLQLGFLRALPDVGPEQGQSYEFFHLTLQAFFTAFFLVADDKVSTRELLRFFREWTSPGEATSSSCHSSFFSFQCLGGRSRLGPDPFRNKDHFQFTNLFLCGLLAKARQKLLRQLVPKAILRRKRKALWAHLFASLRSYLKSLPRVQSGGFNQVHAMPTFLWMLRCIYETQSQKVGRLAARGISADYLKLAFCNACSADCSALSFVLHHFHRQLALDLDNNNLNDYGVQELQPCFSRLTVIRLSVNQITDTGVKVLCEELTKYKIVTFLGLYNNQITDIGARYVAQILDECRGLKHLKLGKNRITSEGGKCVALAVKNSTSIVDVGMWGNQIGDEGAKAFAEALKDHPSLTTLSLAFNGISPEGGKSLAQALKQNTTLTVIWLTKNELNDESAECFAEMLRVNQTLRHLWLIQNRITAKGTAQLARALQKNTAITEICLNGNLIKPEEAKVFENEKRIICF
Briefly: NOD1 functional agonist assay, 293mNOD1-SEAP reporter cells. The class given is cell-based. To be noted: 293mNOD1 cells, OD above 3*O.D of negative control.
Text: as §1, §2

As to `N[C@H](CCC(=O)N[C@@H](COC[C@@H](N)C(=O)O)C(=O)O)C(=O)O` [Example 34, N^5-((S)-2-((R)-2-amino-2-carboxyethoxy)-1-carboxyethyl)-D-glutamine], the “hNod1: concentration where a significant mean optical density (OD) can be observed” value in assay [1] was determined as 10 µg/mL. For the same molecule, the “mNod1: concentration where a significant mean optical density (OD) can be observed” value in assay [2] came out at 10 µg/mL.
`CCCCCCCCCCCC(=O)N[C@H](CCC(=O)N[C@H](CSC[C@H](N)C(=O)O)C(=O)N[C@H](C)C(=O)O)C(=O)O` [Example 16, N^5-((S)-3-(((R)-2-amino-2-carboxyethyl)thio)-1-(((R)-1-carboxyethyl)amino)-1-oxopropan-2-yl)-N^2-dodecanoyl-D-glutamine]: in assay [1], the “hNod1: concentration where a significant mean optical density (OD) can be observed” value amounted to 0.01 µg/mL. Besides, in assay [2], the “mNod1: concentration where a significant mean optical density (OD) can be observed” value amounted to 0.001 µg/mL.
For the molecule `CCCCCCCCCCCCCC(=O)N[C@H](C(=O)N[C@H](CCC(=O)N[C@H](CSC[C@H](N)C(=O)O)C(=O)O)C(=O)O)C(C)C` [Example 12, N^5-((S)-2-(((R)-2-amino-2-carboxyethyl)thio)-1-carboxyethyl)-N^2-(tetradecanoyl-L-valyl)-D-glutamine], the “hNod1: concentration where a significant mean optical density (OD) can be observed” value in assay [1] was 0.001 µg/mL. The “mNod1: concentration where a significant mean optical density (OD) can be observed” value in assay [2] is 0.1 µg/mL.
The like results for `CCCCCCCCCCCC(=O)N[C@@H](C)C(=O)N[C@H](CCC(=O)N[C@H](CSC[C@H](N)C(=O)O)C(=O)NCC(=O)O)C(=O)O` [Example 28, N^5-((S)-3-(((R)-2-amino-2-carboxyethyl)thio)-1-((carboxymethyl)amino)-1-oxopropan-2-yl)-N^2-(dodecanoyl-L-alanyl)-D-glutamine] were, in that order, 0.001 µg/mL and 0.001 µg/mL.
`CCCCCCCCCCCCCC(=O)N[C@@H](Cc1ccccc1)C(=O)N[C@H](CCC(=O)N[C@H](CSC[C@H](N)C(=O)O)C(=O)O)C(=O)O` [Example 13, N^5-((S)-2-(((R)-2-amino-2-carboxyethyl)thio)-1-carboxyethyl)-N^2-(tetradecanoyl-L-phenylalanyl)-D-glutamine]: the “hNod1: concentration where a significant mean optical density (OD) can be observed” value in assay [1] came to 0.001 µg/mL. In addition, the “mNod1: concentration where a significant mean optical density (OD) can be observed” value in assay [2] came out at 1 µg/mL.
For `CCCCCCCCCCCC(=O)N[C@@H](C)C(=O)N[C@H](CCC(=O)N[C@H](CSC[C@H](N)C(=O)O)C(=O)N[C@H](C)C(=O)O)C(=O)O` [Example 20, N^5-((S)-3-(((R)-2-amino-2-carboxyethyl)thio)-1-(((R)-1-carboxyethyl)amino)-1-oxopropan-2-yl)-N^2-(dodecanoyl-L-alanyl)-D-glutamine], in that order: 0.01 µg/mL and 0.01 µg/mL.
As to `N[C@H](CCC(=O)N[C@H](CSC[C@H](N)C(=O)O)C(=O)NCC(=O)O)C(=O)O` [Example 22, N^5-((S)-3-(((R)-2-amino-2-carboxyethyl)thio)-1-((carboxymethyl)amino)-1-oxopropan-2-yl)-D-glutamine], the “hNod1: concentration where a significant mean optical density (OD) can be observed” value in assay [1] worked out at 1 µg/mL. The “mNod1: concentration where a significant mean optical density (OD) can be observed” value in assay [2] was 10 µg/mL.
For the molecule `CCCCCCC(=O)N[C@@H](C)C(=O)N[C@H](CCC(=O)N[C@H](CSC[C@H](N)C(=O)O)C(=O)NCC(=O)O)C(=O)O` [Example 27, N^5-((S)-3-(((R)-2-amino-2-carboxyethyl)thio)-1-((carboxymethyl)amino)-1-oxopropan-2-yl)-N^2-(heptanoyl-L-alanyl)-D-glutamine], the “hNod1: concentration where a significant mean optical density (OD) can be observed” value in assay [1] is 1 µg/mL. The “mNod1: concentration where a significant mean optical density (OD) can be observed” value in assay [2] amounted to 1 µg/mL.
As to `CCCCCCCCCCCCCC(=O)N[C@H](CCC(=O)N[C@H](CSC[C@H](N)C(=O)O)C(=O)O)C(=O)O` [Example 4, N^5-((S)-2-(((R)-2-amino-2-carboxyethyl)thio)-1-carboxyethyl)-N^2-tetradecanoyl-D-glutamine], the “hNod1: concentration where a significant mean optical density (OD) can be observed” value in assay [1] was 0.0001 µg/mL. For the same molecule, the “mNod1: concentration where a significant mean optical density (OD) can be observed” value in assay [2] worked out at 0.001 µg/mL.
The like results for `CCCCCCC(=O)N[C@@H](C)C(=O)N[C@H](CCC(=O)N[C@H](CSC[C@H](N)C(=O)O)C(=O)N[C@H](C)C(=O)O)C(=O)O` [Example 19, N^5-((S)-3-(((R)-2-amino-2-carboxyethyl)thio)-1-(((R)-1-carboxyethyl)amino)-1-oxopropan-2-yl)-N^2-(heptanoyl-L-alanyl)-D-glutamine] were, in that order, 0.1 µg/mL and 0.1 µg/mL.
In the case of `CCCCCCCCCCCCCC(=O)N[C@H](CCC(=O)N[C@@H](COC[C@@H](N)C(=O)O)C(=O)O)C(=O)O` [Example 35, N^5-((S)-2-((R)-2-amino-2-carboxyethoxy)-1-carboxyethyl)-N^2-tetradecanoyl-D-glutamine], the “hNod1: concentration where a significant mean optical density (OD) can be observed” value in assay [1] worked out at 0.01 µg/mL. The “mNod1: concentration where a significant mean optical density (OD) can be observed” value in assay [2] is 0.01 µg/mL.
As to `CC[C@@H](C)[C@H](N)C(=O)N[C@H](CCC(=O)N[C@H](CSC[C@H](N)C(=O)O)C(=O)O)C(=O)O` [Example 7, N^2-(L-alloisoleucyl)-N^5-((S)-2-(((R)-2-amino-2-carboxyethyl)thio)-1-carboxyethyl)-D-glutamine], the “hNod1: concentration where a significant mean optical density (OD) can be observed” value in assay [1] stood at 0.1 µg/mL. Further, the “mNod1: concentration where a significant mean optical density (OD) can be observed” value in assay [2] came to 1 µg/mL.
For the molecule `CCCCCCC(=O)N[C@H](CCC(=O)N[C@H](CSC[C@H](N)C(=O)O)C(=O)NCC(=O)O)C(=O)O` [Example 23, N^5-((S)-3-(((R)-2-amino-2-carboxyethyl)thio)-1-((carboxymethyl)amino)-1-oxopropan-2-yl)-N^2-heptanoyl-D-glutamine], the “hNod1: concentration where a significant mean optical density (OD) can be observed” value in assay [1] came to 1 µg/mL. For the same molecule, the “mNod1: concentration where a significant mean optical density (OD) can be observed” value in assay [2] was found to be 1 µg/mL.
